The test addresses T1, B-raf kinase (Homo sapiens, UniProt P15056).
T1 construct: made in house; host or cells: Sf9 insect cells (baculovirus)
Kind of test: in vitro Raf Kinase Assay (33P-phosphate incorporation into GST-kdMEK). The class given is biochemical. The conditions noted are these: human recombinant Raf protein, substrate GST-kdMEK, 33P-ATP, 25° C., 90 minutes; read-out: IC50 (concentration of test compound required to inhibit 50% of the B-raf kinase activity). Here is the method: Activity of human recombinant Raf protein was assessed in vitro by assay of the incorporation of radiolabelled phosphate to recombinant MAP kinase (MEK), a known physiologic substrate of Raf. Catalytically active human recombinant Raf protein was obtained by purification from sf9 insect cells infected with a human Raf recombinant baculovirus expression vector.
Method: Standard assay conditions of Raf catalytic activity utilized […] of GST-kdMBK, 10 µM ATP and 2 uCi ^33P-ATP, 50 mM MOPS, 0.1 mM EDTA, 0.1M sucrose, 10 mM MgCl2 plus 0.1% dimethylsulphoxide (containing compound where appropriate) in a total reaction volume of 30 ul. Reactions were incubated at 25° C. for 90 minutes and reactions terminated by addition of EDTA to a final concentration of […]. 10 ul of reaction was spotted to P30 phosphocellulose paper and air dried. Following four washes in ice cold 10% trichloroacetic acid, 0.5% phosphoric acid, papers were air dried prior to addition of liquid scintillant and measurement of radioactivity in a scintillation counter. The % inhibition of the B-raf kinase activity is calculated and plotted in order to determine the concentration of test compound required to inhibit 50% of the B-raf kinase activity (IC50).
T1 sequence (P15056 whole entry): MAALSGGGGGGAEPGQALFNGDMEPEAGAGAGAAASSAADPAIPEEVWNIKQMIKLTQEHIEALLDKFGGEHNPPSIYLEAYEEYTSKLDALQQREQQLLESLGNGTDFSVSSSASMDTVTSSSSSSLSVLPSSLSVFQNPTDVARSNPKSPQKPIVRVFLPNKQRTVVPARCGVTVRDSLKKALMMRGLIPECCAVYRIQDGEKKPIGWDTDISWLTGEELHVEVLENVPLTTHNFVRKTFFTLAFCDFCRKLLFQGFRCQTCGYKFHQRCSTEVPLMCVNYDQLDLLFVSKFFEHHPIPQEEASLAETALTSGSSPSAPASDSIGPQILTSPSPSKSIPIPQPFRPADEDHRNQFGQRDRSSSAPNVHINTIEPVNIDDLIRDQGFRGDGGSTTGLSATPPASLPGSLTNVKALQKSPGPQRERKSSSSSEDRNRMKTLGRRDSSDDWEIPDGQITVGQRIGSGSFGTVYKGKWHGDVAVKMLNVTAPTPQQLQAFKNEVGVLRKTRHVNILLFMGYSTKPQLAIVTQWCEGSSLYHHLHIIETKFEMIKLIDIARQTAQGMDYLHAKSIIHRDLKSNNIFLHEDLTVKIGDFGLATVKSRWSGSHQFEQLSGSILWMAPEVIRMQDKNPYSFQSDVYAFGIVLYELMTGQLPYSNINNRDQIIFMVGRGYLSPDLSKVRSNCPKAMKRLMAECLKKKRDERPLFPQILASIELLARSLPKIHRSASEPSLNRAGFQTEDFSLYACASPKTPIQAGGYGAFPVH
On to `CCCONC(=O)c1cc(Oc2ccc(NC(=O)Nc3ccc(Cl)c(C(F)(F)F)c3)cc2)ccn1` [Compound 6, 4-(4-(3-(4-chloro-3-(trifluoromethyl)phenyl)urei-do)phenoxy)-N-propoxypicolinamide], for which the IC50 is less than 1000 nM.

On to `CONC(=O)c1cc(Oc2ccc(NC(=O)Nc3ccc(Cl)c(C(F)(F)F)c3)cc2)ccn1` [Compound 5, 4-(4-(3-(4-chloro-3-(trifluoromethyl)phenyl)ureido)phenoxy)-N-methoxypicolinamide], for which the IC50 was less than 1000 nM.

In the case of `CN(C)CCNC(=O)c1cc(Oc2ccc(NC(=O)Nc3ccc(Cl)c(C(F)(F)F)c3)cc2)ncn1` [Compound 27, 6-(4-(3-(4-chloro-3-(trifluoro-methyl)phenyl)ureido)phenoxy)-N-(2-(dimethylamino)ethyl)pyrimidine-4-carboxamide], the IC50 was less than 1000 nM.

As to `CCNC(=O)c1cc(Oc2ccc(NC(=O)c3ccc(Cl)cc3)cc2)ccn1` [Compound 20, 4-(4-(4-chloro-benzamido)phenoxy)-N-ethylpicolinamide], the IC50 was less than 10000 nM.

In the case of `CONC(=O)c1cc(Oc2ccc(NC(=O)Nc3ccc(Cl)c(Cl)c3)cc2)ccn1` [Compound 14, 4-(4-(3-(3,4-dichlorophenyl)ureido)phenoxy)-N-methoxypicolinamide], the IC50 is less than 1000 nM.

On to `CCNC(=O)c1cc(Oc2ccc(NC(=O)c3ccc(Cl)c(Cl)c3)cc2)ccn1` [Compound 21, 4-(4-(3,4-dichlorobenzamido)phenoxy)-N-ethylpicolinamide], for which the IC50 was less than 10000 nM.

Take `CNC(=O)c1cc(Oc2ccc(NC(=O)Nc3ccc(Cl)c(C(F)(F)F)c3)cc2)ncn1` [Compound 23, 6-(4-(3-(4-chloro-3-(trifluoro-methyl)phenyl)ureido)phenoxy)-N-methylpyrimidine-4-carboxamide]: the IC50 is less than 1000 nM.

As to `CONC(=O)c1cc(Oc2ccc(NC(=O)Nc3cccc(C(F)(F)F)c3)cc2)ccn1` [Compound 13, N-methoxy-4-(4-(3-(3-(trifluoromethyl)phenyl)urei-do)phenoxy)picolinamide], the IC50 is less than 1000 nM.

On to `CCN(CC)CCONC(=O)c1cc(Oc2ccc(NC(=O)Nc3ccc(Cl)c(C(F)(F)F)c3)cc2)ccn1` [Compound 8, 4-(4-(3-(4-chloro-3-(trifluoromethyl)phenyl)urei-do)phenoxy)-N-(2-(diethylamino)ethoxy)picolinamide], for which the IC50 is less than 1000 nM.

As for `O=C(Nc1ccc(Oc2ccnc(C(=O)NOC3CCCC3)c2)cc1)Nc1ccc(Cl)c(Cl)c1` [Compound 17, N-(cyclopentyloxy)-4-(4-(3-(3,4-dichloro-phenyl)ureido)phenoxy)picolinamide], the IC50 was less than 1000 nM.

On to `O=C(Nc1ccc(Oc2ccnc(C(=O)O)c2)cc1)Nc1ccc(Cl)c(C(F)(F)F)c1` [Compound 4, 4-(4-(3-(4-chloro-3-(trifluoromethyl)phenyl)ureido)phenoxy)picolinic acid], for which the IC50 is less than 10000 nM.

As for `CN(C)C(=O)CONC(=O)c1cc(Oc2ccc(NC(=O)Nc3ccc(Cl)c(C(F)(F)F)c3)cc2)ccn1` [Compound 11, 4-(4-(3-(4-chloro-3-(trifluoromethyl)phenyl)urei-do)phenoxy)-N-(2-(dimethylamino)-2-oxoethoxy)picolinamide], the IC50 is less than 1000 nM.

As to `COc1ccc(NC(=O)Nc2ccc(Oc3ccnc(C(=O)NOC4CCC4)c3)cc2)cc1OC` [Compound 19, N-cyclobutoxy-4-(4-(3-(3,4-dimethoxyphenyl)urei-do)phenoxy)picolinamide], the IC50 was less than 1000 nM.

As to `CN(C)CCONC(=O)c1cc(Oc2ccc(NC(=O)Nc3ccc(Cl)c(C(F)(F)F)c3)cc2)ccn1` [Compound 9, 4-(4-(3-(4-chloro-3-(trifluoromethyl)phenyl)urei-do)phenoxy)-N-(2-(dimethylamino)ethoxy)picolinamide], the IC50 was less than 1000 nM.

With `CONC(=O)c1cc(Oc2ccc(NC(=O)Nc3ccc(Cl)c(C(F)(F)F)c3)cc2)ncn1` [Compound 26, 6-(4-(3-(4-chloro-3-(trifluoro-methyl)phenyl)ureido)phenoxy)-N-methoxypyrimidine-4-carboxamide], the IC50 is less than 1000 nM.

Turning to `CCONC(=O)c1cc(Oc2ccc(NC(=O)Nc3ccc(Cl)c(C(F)(F)F)c3)cc2)ncn1` [Compound 25, 6-(4-(3-(4-chloro-3-(trifluoro-methyl)phenyl)ureido)phenoxy)-N-ethoxypyrimidine-4-carboxamide], the IC50 is less than 1000 nM.

Regarding `CNC(=O)c1cc(Oc2ccc(NC(=O)Nc3ccc(Cl)cc3)cc2)ncn1` [Compound 24, 6-(4-(3-(4-chlorophenyl)ureido)phenoxy)-N-methylpyrimidine-4-carboxamide], the IC50 was less than 1000 nM.

In the case of `CCONC(=O)c1cc(Oc2ccc(NC(=O)Nc3ccc(Cl)c(C(F)(F)F)c3)cc2)ccn1` [Compound 7, 4-(4-(3-(4-chloro-3-(trifluoromethyl)phenyl)urei-do)phenoxy)-N-ethoxypicolinamide], the IC50 was less than 1000 nM.

Regarding `CCN(CC)C(=O)CONC(=O)c1cc(Oc2ccc(NC(=O)Nc3ccc(Cl)c(C(F)(F)F)c3)cc2)ccn1` [Compound 10, 4-(4-(3-(4-chloro-3-(trifluoromethyl)phenyl)urei-do)phenoxy)-N-(2-(diethylamino)-2-oxoethoxy)picolinamide], the IC50 was less than 1000 nM.

As to `O=C(Nc1ccc(Oc2cc(C(=O)NCCO)ncn2)cc1)Nc1ccc(Cl)c(C(F)(F)F)c1` [Compound 22, 6-(4-(3-(4-chloro-3-(trifluoro-methyl)phenyl)ureido)phenoxy)-N-(2-hydroxyethyl)pyrimidine-4-carboxamide], the IC50 is less than 1000 nM.

As to `CONC(=O)c1cc(Oc2ccc(NC(=O)Nc3ccccc3)cc2)ccn1` [Compound 15, N-methoxy-4-(4-(3-phenylureido)phenoxy)picolinamide], the IC50 was less than 1000 nM.

Turning to `CONC(=O)c1cc(Oc2ccc(NC(=O)Nc3ccc(Cl)cc3)cc2)ccn1` [Compound 12, 4-(4-(3-(4-chlorophenyl)ureido)phenoxy)-N-methoxypicolinamide], the IC50 was less than 1000 nM.

In the case of `CONC(=O)c1cc(Oc2ccc(NC(=O)Nc3ccc(OC)c(OC)c3)cc2)ccn1` [Compound 16, 4-(4-(3-(3,4-dimethoxyphenyl)ureido)phenoxy)-N-methoxypicolinamide], the IC50 is less than 1000 nM.

As for `CNC(=O)c1ncnc(Oc2ccc(NC(=O)Nc3ccc(Cl)c(C(F)(F)F)c3)cc2)n1` [Compound 28, 4-(4-(3-(4-chloro-3-(trifluoro-methyl)phenyl)ureido)phenoxy)-N-methyl-1,3,5-triazine-2-carboxamide], the IC50 was less than 1000 nM.

As for `O=C(Nc1ccccc1)Nc1ccc(Oc2ccnc(C(=O)NOC3CCCCC3)c2)cc1` [Compound 18, N-(cyclohexyloxy)-4-(4-(3-phenylureido)phenoxy)picolinamide], the IC50 is less than 1000 nM.

Consider `CC(C)(C)OC(=O)c1cc(Oc2ccc(NC(=O)Nc3ccc(Cl)c(C(F)(F)F)c3)cc2)ccn1` [Compound 3, tert-butyl 4-(4-(3-(4-chloro-3-(trifluoromethyl)phenyl)ureido)phenoxy)picolinate], for which the IC50 is less than 10000 nM.

For the origin of these results see patent US20090012091A1, “Oximide derivatives and their therapeutical application” (KinaGen, Inc., priority 2007, published 2009).
